Source: patent publication US20110312956A1, “ARYLINDENOPYRIMIDINES WITH REDUCED hERG CHANNEL BINDING” (priority 2010, published 2011)
Like-named read-outs stand apart in the source and are kept apart here.

Tests used:
[1] = target: T1, human A2a adenosine receptor (Homo sapiens, UniProt P29274); experiment: Ligand binding assay for adenosine A2a receptor ([3H]CGS21680, HEK293 plasma membrane)
T1 construct: purchased PerkinElmer RB-HA2a; host or cells: HEK293 cell plasma membranes

hERG = target: T2, hERG (Homo sapiens, UniProt Q12809); experiment: hERG channel binding assay ([3H]astemizole displacement, HEK293 membranes); conditions: probe [3H]astemizole, at 10 μM, read-out: hERG binding (percent inhibition of [3H]astemizole binding)
T2 construct: expressed in transfected cells; host or cells: HEK293 cells, stably transfected; membranes used
Procedure: (§1) A hERG binding assay is a primary screening method used to evaluate potential activity of a compound against the hERG potassium channel. The affinity of a compound for the hERG channel is measured in vitro by examining displacement of tritiated-[^3H]astemizole, a high affinity hERG channel ligand. In this assay, membranes from HEK293 cells stably transfected with the human hERG channel cDNA are incubated with a range of concentrations of each test compound, vehicle (10% DMSO), or a positive control and [^3H]astemizole.
After a 1-hr incubation, the membranes are harvested onto GF/B filters, the filters dried and the radioactivity is measured. For each test compound, percent inhibition of [^3H]astemizole binding is calculated relative to control binding and IC50 values determined by linear regression. Each assay includes a positive control (i.e., Cisapride) that is tested in parallel with test compounds. At present, there is no gold standard preclinical test available to predict QT prolongation in humans. Therefore to assess potential cardiotoxicity, cardiovascular effects are evaluated preclinically in several different tests including the hERG channel binding assay.
hERG Channel Binding Assay
In the hERG channel binding assay, the ability of test compounds to displace ^3H-astemizole (a high affinity hERG channel ligand) is measured.
as §1, with “[^3H]astemizole. After a 1-hr incubation, the membranes are harvested onto GF/B filters, the filters dried and the radioactivity is measured.” for “[^3H]astemizole.”
For each test compound, percent inhibition of [^3H]astemizole binding is calculated relative to control binding and IC50 values determined by linear regression. Each assay includes a positive control (i.e., Cisapride) that is tested in parallel with test compounds.

[2] = radioligand [3H]CGS21680, read-out: Ki A2a binding

T1 sequence (P29274 whole entry): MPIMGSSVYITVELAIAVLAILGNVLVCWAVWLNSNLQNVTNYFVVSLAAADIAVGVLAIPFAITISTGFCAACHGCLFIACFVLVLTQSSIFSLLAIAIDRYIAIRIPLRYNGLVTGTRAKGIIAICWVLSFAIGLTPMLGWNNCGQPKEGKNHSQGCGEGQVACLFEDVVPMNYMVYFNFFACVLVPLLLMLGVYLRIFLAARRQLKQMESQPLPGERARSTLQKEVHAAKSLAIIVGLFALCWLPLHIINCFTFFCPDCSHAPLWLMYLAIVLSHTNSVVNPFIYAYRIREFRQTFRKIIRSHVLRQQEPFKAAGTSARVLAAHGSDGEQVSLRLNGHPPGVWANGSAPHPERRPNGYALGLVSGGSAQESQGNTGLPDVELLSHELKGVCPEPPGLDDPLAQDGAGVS
T2 sequence (Q12809 whole entry): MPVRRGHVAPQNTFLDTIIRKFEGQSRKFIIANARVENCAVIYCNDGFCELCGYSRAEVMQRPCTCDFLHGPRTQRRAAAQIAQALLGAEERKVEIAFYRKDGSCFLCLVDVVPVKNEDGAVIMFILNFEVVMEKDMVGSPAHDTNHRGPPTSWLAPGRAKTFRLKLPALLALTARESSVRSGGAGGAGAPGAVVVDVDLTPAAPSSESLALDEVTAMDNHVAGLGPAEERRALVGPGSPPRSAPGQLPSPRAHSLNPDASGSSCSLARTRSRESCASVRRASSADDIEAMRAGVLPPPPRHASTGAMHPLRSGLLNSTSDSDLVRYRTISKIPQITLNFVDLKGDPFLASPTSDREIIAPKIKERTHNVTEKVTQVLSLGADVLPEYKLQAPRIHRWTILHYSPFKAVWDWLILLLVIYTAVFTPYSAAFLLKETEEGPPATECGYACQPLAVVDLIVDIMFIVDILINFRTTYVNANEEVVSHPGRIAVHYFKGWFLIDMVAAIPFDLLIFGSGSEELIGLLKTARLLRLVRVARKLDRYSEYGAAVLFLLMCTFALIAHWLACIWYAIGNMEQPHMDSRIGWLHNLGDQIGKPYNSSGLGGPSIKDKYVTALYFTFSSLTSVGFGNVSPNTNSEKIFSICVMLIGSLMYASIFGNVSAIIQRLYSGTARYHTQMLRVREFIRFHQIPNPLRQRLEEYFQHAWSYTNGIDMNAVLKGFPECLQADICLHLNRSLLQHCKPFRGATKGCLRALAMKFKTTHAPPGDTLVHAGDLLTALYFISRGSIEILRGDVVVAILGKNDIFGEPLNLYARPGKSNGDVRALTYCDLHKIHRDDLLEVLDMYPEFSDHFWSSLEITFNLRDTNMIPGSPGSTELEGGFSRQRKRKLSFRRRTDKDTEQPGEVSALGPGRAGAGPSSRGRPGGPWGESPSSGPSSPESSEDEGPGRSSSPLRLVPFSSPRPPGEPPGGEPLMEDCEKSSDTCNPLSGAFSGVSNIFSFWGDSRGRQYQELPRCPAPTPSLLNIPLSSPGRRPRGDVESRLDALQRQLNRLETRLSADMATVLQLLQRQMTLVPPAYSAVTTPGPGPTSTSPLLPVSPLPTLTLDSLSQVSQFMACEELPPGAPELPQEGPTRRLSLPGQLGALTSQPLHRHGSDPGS

Row | SMILES | Ki [1, 2] | inhibition at 1 h, 10 µM (hERG) | Ki [1]
1 | Nc1nc(-c2ccccc2)c2c(n1)-c1cc(CN3CCCC3)ccc1C2=O [Compound 1] | 6.69 nM | 1.4% | 
2 | Nc1nc(-c2ccccc2)c2c(n1)-c1cc(CNCc3ccccn3)ccc1C2=O [Compound 2] |  | 34.5% | 10.2 nM
3 | Nc1nc(-c2ccccc2)c2c(n1)-c1cc(CN3CCC(=O)CC3)ccc1C2=O [Compound 3] | 9.4 nM | 13.8% | 
4 | Nc1nc(-c2ccccc2)c2c(n1)-c1cc(CN3CCC(O)C3)ccc1C2=O (stereo not drawn) [Compound 4] | 7.9 nM | 27.8% | 
5 | Nc1nc(-c2ccccc2)c2c(n1)-c1cc(CN3CCC(O)CC3)ccc1C2=O [Compound 5] | 5.8 nM | 26.2% | 
6 | Nc1nc(-c2ccccc2)c2c(n1)-c1cc(CN3CCOCC3)ccc1C2=O [Compound 6] | 5.39 nM | -12.5% | 
